pIC50: −log10 of the molar value.
Assays:
[1] = tested on: subcutaneous DLBCL SU-DHL-10 xenografts; experiment: In vivo efficacy in DLBCL SU-DHL-10 xenograft model; set-up: species or system female SCID mice; conditions: 15 mg/kg q7d iv, 16 days, end of experiment
Method: (§1) The aim of the present experiments was to assess the in vivo efficacy and tolerability of Compound A′ in monotherapy in the DLBCL SU-DHL-10 tumour model subcutaneously implanted in SCID mice. In vivo efficacy was determined in female SCID mice bearing subcutaneous DLBCL SU-DHL-10 xenografts. Compound A′ was assessed at one dose level in monotherapy. Anti-tumour activity and tolerability of the treated group was assessed using the vehicle control group as a reference. […] At randomisation, the area of growing tumours was initially determined Animals bearing one tumour of an area of 25-35 mm2 were distributed in experimental groups according to the study protocol. The day of randomisation is designated as day 0 of an experiment Animals either received Compound A′ (formulated in 30% PEG400/10% Ethanol/60%water), at a dose of 15 mg/kg q7d intravenously or vehicle control (q7d iv) for a period of 16 days.
(§2) The maximum body weight loss was −9% in Compound A′ group compared to −4% in the vehicle group indicating moderate tolerability of Compound A′ at a dose of 15 mg/kg q7d iv. At the end of the experiment the Treatment to Control ratios (T/C) was calculated based on the mean tumor area in the Compound A′ treatment group and in the vehicle control group.

[2] = tested on: subcutaneous DLBCL OCI-LY-3 xenografts; experiment: In vivo efficacy in DLBCL OCI-LY-3 xenograft model; set-up: species or system female SCID mice; conditions: 10 mg/kg q7d iv, 14 days, end of experiment
Method: (§3) The aim of the present experiments was to assess the in vivo efficacy and tolerability of Compound A′ in monotherapy in the DLBCL OCI-LY-3 tumour model subcutaneously implanted in SCID mice. In vivo efficacy was determined in female SCID mice bearing subcutaneous DLBCL OCI-LY-3 xenografts. Compound A′ was assessed at one dose level in monotherapy. Anti-tumour activity and tolerability of the treated group was assessed using the vehicle control group as a reference.
(§4) At randomisation, the area of growing tumours was initially determined Animals bearing one tumour of an area of 25-35 mm2 were distributed in experimental groups according to the study protocol. The day of randomisation is designated as day 0 of an experiment Animals either received Compound A′ (formulated in 30% PEG400/10% Ethanol/60%water), at a dose of 10 mg/kg q7d intravenously or vehicle control (qd po) for a period of 14 days.
At the end of the experiment Treatment to Control ratios (T/C) were calculated based on the mean tumor area and the mean tumor weight in the Compound A′ treatment group and in the vehicle control group.

TMD8 = experiment: Cell proliferation assay (CellTiter Glo, 72 h); type: cell-based; conditions: Homo sapiens, TMD8, DLBCL ABC subtype
Method: (§5) The proliferation of all (DLCBL) cell lines in the presence of different concentrations of Compound A′ or FR compound for 72 h was assessed using CellTiter Glo kits (Promega Corporation, Madison, Wis.). All expressed values were averages of triplicate experiments, and IC50 was calculated using GraphPad Prism 5 (GraphPad Software, San Diego, Calif.) according to the manufacturer's instructions or the MTS software.

SU-DHL-10 = experiment: Cell proliferation assay (CellTiter Glo, 72 h); type: cell-based; conditions: Homo sapiens, SU-DHL10, SU-DHL-10, DLBCL GCB subtype
Method: as §5

SU-DHL-6 = experiment: Cell proliferation assay (CellTiter Glo, 72 h); type: cell-based; conditions: Homo sapiens, SU-DHL-6, DLBCL GCB subtype
Method: as §5

DB = experiment: Cell proliferation assay (CellTiter Glo, 72 h); type: cell-based; conditions: Homo sapiens, DLBCL GCB subtype
Method: as §5

SU-DHL-5 = experiment: Cell proliferation assay (CellTiter Glo, 72 h); type: cell-based; conditions: Homo sapiens, SU-DHL-5, DLBCL GCB subtype
Method: as §5

SU-DHL-4 = experiment: Cell proliferation assay (CellTiter Glo, 72 h); type: cell-based; conditions: Homo sapiens, SU-DHL-4, DLBCL GCB subtype
Method: as §5

HT = experiment: Cell proliferation assay (CellTiter Glo, 72 h); type: cell-based; conditions: Homo sapiens, DLBCL GCB subtype
Method: as §5

OCI-LY-19 = experiment: Cell proliferation assay (CellTiter Glo, 72 h); type: cell-based; conditions: Homo sapiens, OCI-LY19, OCI-LY-19, DLBCL GCB subtype
Method: as §5

OCI-LY-3 = experiment: Cell proliferation assay (CellTiter Glo, 72 h); type: cell-based; conditions: Homo sapiens, OCI-Ly3, OCI-LY-3, DLBCL ABC subtype
Method: as §5

HBL1 = experiment: Cell proliferation assay (CellTiter Glo, 72 h); type: cell-based; conditions: HBL1, DLBCL ABC subtype
Method: as §5

SU-DHL-8 = experiment: Cell proliferation assay (CellTiter Glo, 72 h); type: cell-based; conditions: Homo sapiens, SU-DHL-8, DLBCL GCB subtype
Method: as §5

[3] = Tolerability in OCI-LY-3 xenograft study; type: in vivo; conditions: 10 mg/kg q7d iv, 14 days
Method: as §3, §4

[4] = Tolerability in SU-DHL-10 xenograft study; type: in vivo, female SCID mice; conditions: 15 mg/kg q7d iv, 16 days
Method: as §1, §2

SMILES	T/C by area (Treatment to Control ratio, mean tumor area) [1]	T/C by area (Treatment to Control ratio, mean tumor area) [2]	T/C by weight (Treatment to Control ratio, mean tumor weight) [2]	pIC50 (TMD8)	pIC50 (SU-DHL-10)	pIC50 (SU-DHL-6)	pIC50 (DB)	pIC50 (SU-DHL-5)	pIC50 (SU-DHL-4)	pIC50 (HT)	pIC50 (OCI-LY-19)	pIC50 (OCI-LY-3)	pIC50 (HBL1)	pIC50 (SU-DHL-8)	Fatal toxicities [3]	maximum body weight loss [3]	maximum body weight loss [4]
COc1cc(F)ccc1-c1cc(Nc2cc(CS(C)(=N)=O)ccn2)ncc1F (single isomer, unassigned; (+)) [Compound A′, (+)-5-Fluoro-4-(4-fluoro-2-methoxyphenyl)-N-{4-[(S-methylsulfonimidoyl)methyl]pyridin-2-yl}pyridin-2-amine]	0.02	0.29	0.24	7.00	6.89	7.43	7.06	6.98	7.05	7.09	7.41	7.08	6.71	7.03	did not occur	−6%	−9%
COc1cc(F)ccc1-c1ncnc(Nc2cccc(CS(C)(=N)=O)c2)n1 (centres unmarked) [FR compound, reference compound]					6.22	6.44	6.24		6.77	6.15	6.32	6.47	6.27	6.21			
